Data from PubChem BioAssay (NCI).
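In this assay, cells in 96-well plates receive the compound at five concentrations for 48 hours. Endpoints are linearly interpolated between the surrounding concentrations. TGI: total growth inhibition.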

Legend:
Test in all cases: NCI tumour cell line growth inhibition, 48 h
786-0 renal = test system: 786-0 renal
A498 renal = test system: A498 renal
A549 NSCLC = test system: A549 NSCLC
ACHN renal = test system: ACHN renal
BT-549 breast = test system: BT-549 breast
CAKI-1 renal = test system: CAKI-1 renal
CCRF-CEM leukemia = test system: CCRF-CEM leukemia
COLO 205 colon = test system: COLO 205 colon
DU-145 prostate = test system: DU-145 prostate
EKVX NSCLC = test system: EKVX NSCLC
HCC-2998 colon = test system: HCC-2998 colon
HCT-116 colon = test system: HCT-116 colon
HCT-15 colon = test system: HCT-15 colon
HL-60(TB) leukemia = test system: HL-60(TB) leukemia
HOP-62 NSCLC = test system: HOP-62 NSCLC
HOP-92 NSCLC = test system: HOP-92 NSCLC
HS 578T breast = test system: HS 578T breast
HT29 colon = test system: HT29 colon
IGROV1 ovarian = test system: IGROV1 ovarian
K-562 leukemia = test system: K-562 leukemia
KM12 colon = test system: KM12 colon
LOX IMVI melanoma = test system: LOX IMVI melanoma
M14 melanoma = test system: M14 melanoma
MALME-3M melanoma = test system: MALME-3M melanoma
MCF7 breast = test system: MCF7 breast
MDA-MB-231 breast = test system: MDA-MB-231 breast
MDA-MB-435 = test system: MDA-MB-435
MDA-N = test system: MDA-N
MOLT-4 leukemia = test system: MOLT-4 leukemia
NCI-H226 lung = test system: NCI-H226 lung
NCI-H23 lung = test system: NCI-H23 lung
NCI-H460 lung = test system: NCI-H460 lung
NCI-H522 lung = test system: NCI-H522 lung
NCI/ADR-RES ovarian = test system: NCI/ADR-RES ovarian
OVCAR-3 ovarian = test system: OVCAR-3 ovarian
OVCAR-4 ovarian = test system: OVCAR-4 ovarian
OVCAR-5 ovarian = test system: OVCAR-5 ovarian
OVCAR-8 ovarian = test system: OVCAR-8 ovarian
PC-3 prostate = test system: PC-3 prostate
RPMI-8226 leukemia = test system: RPMI-8226 leukemia
RXF 393 renal = test system: RXF 393 renal
SF-268 CNS = test system: SF-268 CNS
SF-295 CNS = test system: SF-295 CNS
SF-539 CNS = test system: SF-539 CNS
SK-MEL-2 melanoma = test system: SK-MEL-2 melanoma
SK-MEL-28 melanoma = test system: SK-MEL-28 melanoma
SK-MEL-5 melanoma = test system: SK-MEL-5 melanoma
SK-OV-3 ovarian = test system: SK-OV-3 ovarian
SN12C renal = test system: SN12C renal
SNB-19 CNS = test system: SNB-19 CNS
SNB-75 CNS = test system: SNB-75 CNS
SR leukemia = test system: SR leukemia
SW-620 colon = test system: SW-620 colon
T-47D breast = test system: T-47D breast
TK-10 renal = test system: TK-10 renal
U251 CNS = test system: U251 CNS
UACC-257 melanoma = test system: UACC-257 melanoma
UACC-62 melanoma = test system: UACC-62 melanoma
UO-31 renal = test system: UO-31 renal

In the case of Cc1cc(N(CCC#N)CCC#N)ccc1/C(N=Nc1cccc(Cl)c1)=N/NC(=O)c1cc(Cl)ccc1O, the TGI (786-0 renal) is reported as 64.8 µM, the TGI (A498 renal) is reported as 53.1 µM and the TGI (A549 NSCLC) is reported as 75.7 µM. It also gave a TGI (ACHN renal) of 42 µM, a TGI (BT-549 breast) of 62 µM and a TGI (CAKI-1 renal) of 44.8 µM. It also gave a TGI (CCRF-CEM leukemia) of 37.2 µM, a TGI (COLO 205 colon) of 17.8 µM and a TGI (DU-145 prostate) of 42.6 µM. The TGI (EKVX NSCLC) was 39.6 µM, the TGI (HCC-2998 colon) was 26.2 µM and the TGI (HCT-116 colon) was 44.4 µM. For the same compound, the TGI (HCT-15 colon) was 24.4 µM, the TGI (HL-60(TB) leukemia) was 9.06 µM and the TGI (HOP-62 NSCLC) was 62 µM. For the same compound, the TGI (HOP-92 NSCLC) was 43.1 µM, the TGI (HS 578T breast) was greater than 100 µM and the TGI (HT29 colon) was 44.2 µM. It also gave a TGI (IGROV1 ovarian) of 10.2 µM, a TGI (K-562 leukemia) greater than 100 µM and a TGI (KM12 colon) of 35.4 µM. For the same compound, the TGI (LOX IMVI melanoma) was 42.2 µM, the TGI (M14 melanoma) was 49.6 µM and the TGI (MALME-3M melanoma) was 28.1 µM. For the same compound, the TGI (MCF7 breast) was greater than 100 µM, the TGI (MDA-MB-231 breast) was 49 µM and the TGI (MDA-MB-435) was greater than 100 µM. The TGI (MDA-N) was greater than 100 µM, the TGI (MOLT-4 leukemia) was 34.8 µM and the TGI (NCI-H226 lung) was 84.2 µM. The TGI (NCI-H23 lung) was 31.1 µM, the TGI (NCI-H460 lung) was 31.9 µM and the TGI (NCI-H522 lung) was 49 µM. For the same compound, the TGI (NCI/ADR-RES ovarian) was 54.6 µM, the TGI (OVCAR-3 ovarian) was 16.5 µM and the TGI (OVCAR-4 ovarian) was 55.8 µM. The TGI (OVCAR-5 ovarian) was greater than 100 µM, the TGI (OVCAR-8 ovarian) was 49.2 µM and the TGI (PC-3 prostate) was 46.2 µM. The TGI (RPMI-8226 leukemia) was 63.5 µM, the TGI (RXF 393 renal) was 35.3 µM and the TGI (SF-268 CNS) was 75.2 µM. For the same compound, the TGI (SF-295 CNS) was greater than 100 µM, the TGI (SF-539 CNS) was greater than 100 µM and the TGI (SK-MEL-2 melanoma) was 36.1 µM. For the same compound, the TGI (SK-MEL-28 melanoma) was 49.9 µM, the TGI (SK-MEL-5 melanoma) was 26.9 µM and the TGI (SK-OV-3 ovarian) was 90.6 µM. For the same compound, the TGI (SN12C renal) was 61.3 µM, the TGI (SNB-19 CNS) was greater than 100 µM and the TGI (SNB-75 CNS) was 42.1 µM. It also gave a TGI (SR leukemia) greater than 100 µM, a TGI (SW-620 colon) greater than 100 µM and a TGI (T-47D breast) of 60.6 µM. For the same compound, the TGI (TK-10 renal) was 59.7 µM, the TGI (U251 CNS) was greater than 100 µM and the TGI (UACC-257 melanoma) was 31.2 µM. For the same compound, the TGI (UACC-62 melanoma) was 28.9 µM and the TGI (UO-31 renal) was 55.6 µM.
Compound CC1=NC(=Cc2ccccc2O)C(=O)N1n1c(-c2ccccc2)nc2ccccc2c1=O has a TGI (786-0 renal) greater than 100 µM, a TGI (A498 renal) greater than 100 µM and a TGI (A549 NSCLC) greater than 100 µM. The TGI (ACHN renal) was greater than 100 µM, the TGI (BT-549 breast) was greater than 100 µM and the TGI (CCRF-CEM leukemia) was greater than 100 µM. It also gave a TGI (COLO 205 colon) greater than 100 µM, a TGI (DU-145 prostate) greater than 100 µM and a TGI (EKVX NSCLC) greater than 100 µM. For the same compound, the TGI (HCC-2998 colon) was greater than 100 µM, the TGI (HCT-116 colon) was greater than 100 µM and the TGI (HCT-15 colon) was greater than 100 µM. For the same compound, the TGI (HL-60(TB) leukemia) was greater than 100 µM, the TGI (HOP-62 NSCLC) was greater than 100 µM and the TGI (HOP-92 NSCLC) was greater than 100 µM. For the same compound, the TGI (HS 578T breast) was greater than 100 µM, the TGI (HT29 colon) was greater than 100 µM and the TGI (IGROV1 ovarian) was greater than 100 µM. For the same compound, the TGI (K-562 leukemia) was greater than 100 µM, the TGI (KM12 colon) was greater than 100 µM and the TGI (LOX IMVI melanoma) was greater than 100 µM. The TGI (M14 melanoma) was greater than 100 µM, the TGI (MALME-3M melanoma) was greater than 100 µM and the TGI (MCF7 breast) was 74.2 µM. It also gave a TGI (MDA-MB-231 breast) greater than 100 µM, a TGI (MDA-MB-435) greater than 100 µM and a TGI (MDA-N) greater than 100 µM. The TGI (MOLT-4 leukemia) was greater than 100 µM, the TGI (NCI-H226 lung) was greater than 100 µM and the TGI (NCI-H23 lung) was greater than 100 µM. The TGI (NCI-H460 lung) was greater than 100 µM, the TGI (NCI-H522 lung) was greater than 100 µM and the TGI (NCI/ADR-RES ovarian) was 93.5 µM. For the same compound, the TGI (OVCAR-3 ovarian) was greater than 100 µM, the TGI (OVCAR-4 ovarian) was greater than 100 µM and the TGI (OVCAR-5 ovarian) was greater than 100 µM. For the same compound, the TGI (OVCAR-8 ovarian) was greater than 100 µM, the TGI (PC-3 prostate) was greater than 100 µM and the TGI (RPMI-8226 leukemia) was greater than 100 µM. The TGI (RXF 393 renal) was greater than 100 µM, the TGI (SF-268 CNS) was greater than 100 µM and the TGI (SF-295 CNS) was greater than 100 µM. The TGI (SF-539 CNS) was 87.3 µM, the TGI (SK-MEL-28 melanoma) was greater than 100 µM and the TGI (SK-MEL-5 melanoma) was 61.4 µM. For the same compound, the TGI (SK-OV-3 ovarian) was greater than 100 µM, the TGI (SN12C renal) was greater than 100 µM and the TGI (SNB-19 CNS) was greater than 100 µM. It also gave a TGI (SNB-75 CNS) greater than 100 µM, a TGI (SR leukemia) greater than 100 µM and a TGI (SW-620 colon) greater than 100 µM. For the same compound, the TGI (T-47D breast) was greater than 100 µM, the TGI (TK-10 renal) was greater than 100 µM and the TGI (U251 CNS) was greater than 100 µM. The TGI (UACC-257 melanoma) was greater than 100 µM, the TGI (UACC-62 melanoma) was 34.6 µM and the TGI (UO-31 renal) was greater than 100 µM.
